Data on three compounds can be found in BindingDB's records for doi:10.1021/acs.jmedchem.5b00964 (Peking Union Medical College, 2015).

Structures are written as SMILES.

The experiment addresses T1, X-box-binding protein 1 (Homo sapiens, UniProt P17861).
T1 sequence (P17861 whole entry): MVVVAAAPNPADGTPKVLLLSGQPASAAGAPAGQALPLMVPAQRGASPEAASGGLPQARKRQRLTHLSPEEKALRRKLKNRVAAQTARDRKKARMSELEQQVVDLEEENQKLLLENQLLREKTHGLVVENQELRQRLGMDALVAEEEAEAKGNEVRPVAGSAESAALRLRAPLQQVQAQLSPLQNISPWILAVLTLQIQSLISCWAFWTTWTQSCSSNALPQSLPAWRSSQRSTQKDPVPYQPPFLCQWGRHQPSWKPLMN
Nature of the experiment: Transactivation of XBP1 (unknown origin) transfected in rat IEC-6 cells after 48 hrs by dual luciferase reporter gene assay. A general note: Reporter assays use an easily measured gene product as a stand-in for the process of interest.
With `C1=C2c3cc4c(cc3CCN2Cc2c1ccc1c2OCO1)OCO4`, the EC50 – broadly, the concentration needed to bring the measured effect to its halfway point – came out at 2.3 nM.

As to `CC(=O)CC1c2c(ccc3c2OCO3)C=C2c3cc4c(cc3CCN21)OCO4` (stereo not drawn), the 50% effective concentration (EC50) amounted to 220 nM.

`C=C(C(C)=O)c1c2c3c(ccc2c(C)c2[n+]1CCc1cc4c(cc1-2)OCO4)OCO3` registered a 50% effective concentration (EC50) of 210 nM.
